Patent US20260159536A1, “AKR1C3-ACTIVATED DNA ALKYLATING AGENT, AND MEDICAL APPLICATION THEREOF” (ASCENTAWITS PHARMACEUTICALS, LTD., priority 2021, published 2026)

Experiments:
MHCC97H = test: Cytotoxicity on hepatocellular carcinoma cell line MHCC97H; format: cell-based
Protocol: If not otherwise specified, IC50 values were measured by the following experimental methods:
a) Cells were plated for 24 hours, and then the compounds acted singly. 99 μL of growth medium was supplemented per well, and then 1 μL of 200× compound was added, gently shaken to ensure uniform mixing, and then placed in a 37° C., 5% CO2 incubator.
b) The cell plate was placed in the incubator for 72 hours.
b) 100 μL of CTG reagent (CelltiterGlo kit) was added to each well, the plate was placed in a rapid oscillator and shaken for 2 minutes, and then placed at room temperature for 30 minutes away from light.
The IC50 was calculated using GraphPad Prism 8 software and the IC50 (half inhibitory concentration) of the compounds was obtained using the following non-linear fitting formula: […]
Using the same experimental methods as described above, Compounds A, B and C were further tested for cytotoxicity against different hepatocellular carcinoma (HCC) cell lines SNU354, SNU886, MHCC97H and huH-1, and the results were shown in Table 2 below: […]

[1] = test system: HuPrime model LI1005 human liver cancer; test: In vivo pharmacodynamics, liver cancer LI1005 PDX model; set-up: species or system BALB/c nude mice; settings: for Tumor volume (x ± S): in mm³ (unit assumed)
[2] = test system: human lung cancer NCI-H460-Luc2 cells (intracranial); test: In vivo pharmacodynamics, NCI-H460-Luc2 intracranial inoculation CDX model; set-up: species or system BALB/c nude mice; settings: for Bioluminescence Value (Day 11) / T/C (%) / TGI (%): i.v. QWx3, Day 11
Protocol: The experiment was divided into groups of test drug Paclitaxel 20 mg/kg group, Compound A 2 mg/kg, 4 mg/kg and 8 mg/kg groups and 10% ethanol+10% polyoxyethylene castor oil+80% glucose injection DSW (pH 7.42) vehicle control group (Vehicle group), with 6 mice per group. […] The positive drug Paclitaxel 20 mg/kg group was administered by intraperitoneal injection and administered once a week for 3 weeks.
The pharmacodynamic analysis of each group in the human NCI-H460-luc intracranial inoculation model was performed based on the measured bioluminescence values on day 11 after administration, and the results were shown in Table 14.

[3] = test system: HuPrime model LI6280 human liver cancer; test: In vivo pharmacodynamics, liver cancer LI6280 PDX model; set-up: species or system BALB/c nude mice; settings: for Tumor volume: 4.5 mg/kg i.v.
Protocol: Experiment Instruction: BALB/c nude mice were subcutaneously inoculated with HuPrime® model LI6280 tumour blocks to establish a subcutaneous transplantation tumour model of human liver cancer. […] The efficacy was evaluated according to the relative tumor inhibition rate TGI (%), and the safety was evaluated according to the change in body weight and the death of the animals.

[4] = 1.25 mg/kg, QDx5, 2 days off, 2 weeks off, QDx5, i.p., Day 35
[5] = 2.5 mg/kg, QDx5, 2 days off, 2 weeks off, QDx5, i.p., Day 35
[6] = 5 mg/kg, QDx5, 2 days off, 2 weeks off, QDx5, i.p., Day 35
[7] = 10 mg/kg, QWx2, 1 week off, QWx2, i.v., Day 35

Which results are given for `O=[N+]([O-])c1ccc(C(OP(=O)(N2CC2)N2CC2)C(F)(F)F)cc1Oc1ccc(-c2ccc(F)cc2)c(F)c1` (racemic) [Compound A]?
IC50 (MHCC97H; Homo sapiens): 396 nM; ratio A/B (MHCC97H; IC50 ratio): 1.63; ratio A/C (MHCC97H; IC50 ratio): 0.70; Tumor volume ([1]; 1.25 mg/kg i.p., Day 0): 102.66 mm^3; Tumor volume ([1]; 1.25 mg/kg i.p., Day 3): 157.94 mm^3; Tumor volume ([1]; 1.25 mg/kg i.p., Day 7): 198.68 mm^3; Tumor volume ([1]; 1.25 mg/kg i.p., Day 10): 188.83 mm^3; Tumor volume ([1]; 1.25 mg/kg i.p., Day 14): 196.25 mm^3; Tumor volume ([1]; 1.25 mg/kg i.p., Day 17): 204.85 mm^3; Tumor volume ([1]; 1.25 mg/kg i.p., Day 21): 228.87 mm^3; Tumor volume ([1]; 1.25 mg/kg i.p., Day 24): 256.49 mm^3; Tumor volume ([1]; 1.25 mg/kg i.p., Day 28): 246.26 mm^3; Tumor volume ([1]; 1.25 mg/kg i.p., Day 31): 282.93 mm^3; Tumor volume ([1]; 1.25 mg/kg i.p., Day 35): 334.61 mm^3; Relative tumor volume (x ± S) [1, 4]: 3.28 ± 0.53; T/C (%) [1, 4]: 32.47%; TGI (%) [1, 4]: 67.53%; Tumor volume (x ± S) [1, 4]: 334.61 ± 61.24; Tumor volume ([1]; 2.5 mg/kg i.p., Day 0): 103.02 mm^3; Tumor volume ([1]; 2.5 mg/kg i.p., Day 3): 156.63 mm^3; Tumor volume ([1]; 2.5 mg/kg i.p., Day 7): 197.27 mm^3; Tumor volume ([1]; 2.5 mg/kg i.p., Day 10): 156.39 mm^3; Tumor volume ([1]; 2.5 mg/kg i.p., Day 14): 147.34 mm^3; Tumor volume ([1]; 2.5 mg/kg i.p., Day 17): 148.94 mm^3; Tumor volume ([1]; 2.5 mg/kg i.p., Day 21): 173.92 mm^3; Tumor volume ([1]; 2.5 mg/kg i.p., Day 24): 180.83 mm^3; Tumor volume ([1]; 2.5 mg/kg i.p., Day 28): 178.96 mm^3; Tumor volume ([1]; 2.5 mg/kg i.p., Day 31): 182.98 mm^3; Tumor volume ([1]; 2.5 mg/kg i.p., Day 35): 178.69 mm^3; Relative tumor volume (x ± S) [1, 5]: 1.60 ± 0.42; T/C (%) [1, 5]: 15.88%; TGI (%) [1, 5]: 84.12%; Tumor volume (x ± S) [1, 5]: 178.69 ± 65.98; Tumor volume ([1]; 5 mg/kg i.p., Day 0): 103.15 mm^3; Tumor volume ([1]; 5 mg/kg i.p., Day 3): 160.80 mm^3; Tumor volume ([1]; 5 mg/kg i.p., Day 7): 167.82 mm^3; Tumor volume ([1]; 5 mg/kg i.p., Day 10): 120.93 mm^3; Tumor volume ([1]; 5 mg/kg i.p., Day 14): 97.35 mm^3; Tumor volume ([1]; 5 mg/kg i.p., Day 17): 90.25 mm^3; Tumor volume ([1]; 5 mg/kg i.p., Day 21): 106.81 mm^3; Tumor volume ([1]; 5 mg/kg i.p., Day 24): 115.29 mm^3; Tumor volume ([1]; 5 mg/kg i.p., Day 28): 110.01 mm^3; Tumor volume ([1]; 5 mg/kg i.p., Day 31): 102.22 mm^3; Tumor volume ([1]; 5 mg/kg i.p., Day 35): 85.00 mm^3; Relative tumor volume (x ± S) [1, 6]: 0.77 ± 0.18; T/C (%) [1, 6]: 7.62%; TGI (%) [1, 6]: 92.38%; Tumor volume (x ± S) [1, 6]: 85.00 ± 26.32; Tumor volume ([1]; 10 mg/kg i.v., Day 0): 102.58 mm^3; Tumor volume ([1]; 10 mg/kg i.v., Day 3): 127.72 mm^3; Tumor volume ([1]; 10 mg/kg i.v., Day 7): 172.58 mm^3; Tumor volume ([1]; 10 mg/kg i.v., Day 10): 138.61 mm^3; Tumor volume ([1]; 10 mg/kg i.v., Day 14): 127.60 mm^3; Tumor volume ([1]; 10 mg/kg i.v., Day 17): 132.95 mm^3; Tumor volume ([1]; 10 mg/kg i.v., Day 21): 151.00 mm^3; Tumor volume ([1]; 10 mg/kg i.v., Day 24): 181.36 mm^3; Tumor volume ([1]; 10 mg/kg i.v., Day 28): 191.25 mm^3; Tumor volume ([1]; 10 mg/kg i.v., Day 31): 186.25 mm^3; Tumor volume ([1]; 10 mg/kg i.v., Day 35): 179.97 mm^3; Relative tumor volume (x ± S) [1, 7]: 1.87 ± 0.54; T/C (%) [1, 7]: 18.53%; TGI (%) [1, 7]: 81.47%; Tumor volume (x ± S) [1, 7]: 179.97 ± 51.38; tolerability / body weight ([1]; Compound A 10, 1.25, 2.5, 5 mg/kg, Sorafenib 30 mg/kg): well tolerated; Bioluminescence Value (Day 11) ([2]; 2 mg/kg): 7.62 ± 2.10 ×10^5 photon/second; T/C (%) ([2]; 2 mg/kg): 0.24%; TGI (%) ([2]; 2 mg/kg): 99.80%; Bioluminescence Value (Day 11) ([2]; 4 mg/kg): 1.62 ± 0.30 ×10^5 photon/second; T/C (%) ([2]; 4 mg/kg): 0.05%; TGI (%) ([2]; 4 mg/kg): 100.03%; Bioluminescence Value (Day 11) ([2]; 8 mg/kg): 1.78 ± 0.42 ×10^5 photon/second; T/C (%) ([2]; 8 mg/kg): 0.06%; TGI (%) ([2]; 8 mg/kg): 100.03%; body weight change ([2]; 2, 4, 8 mg/kg i.v.): little change; Relative tumor volume (x ± S) ([3]; 4.5 mg/kg i.v. QWx3, Day 17): 20.79 ± 1.15; T/C (%) ([3]; 4.5 mg/kg i.v. QWx3, Day 17): 101.41%; TGI (%) ([3]; 4.5 mg/kg i.v. QWx3, Day 17): −1.41%; Tumor volume (x ± S) ([3]; 4.5 mg/kg i.v. QWx3, Day 17, in mm³ (unit assumed)): 2201.20 ± 287.44; Tumor volume ([3]; Day 0): 103.98 mm^3; Tumor volume ([3]; Day 3): 150.33 mm^3; Tumor volume ([3]; Day 7): 318.74 mm^3; Tumor volume ([3]; Day 10): 683.99 mm^3; Tumor volume ([3]; Day 14): 1404.42 mm^3; Tumor volume ([3]; Day 17): 2201.20 mm^3; Tumor volume ([3]; Day 21): 2739.12 mm^3; Tumor volume ([3]; Day 24): 3311.77 mm^3; Tumor volume ([3]; Day 28): 3362.07 mm^3
